Data on 13 compounds can be found in patent publication US20050043534A1, “Modulators of ceramidase and methods of used based thereon” (priority 2001, published 2005).

Several values for one entry are separate records, joined by “and”; a condition that tells them apart may be missing. Equal entries are not always repeated. Entries after “also recorded” stand apart in the source; their conditions may differ.

As usually defined, the inhibition is the relative decrease from the control value, in per cent. The IC50 is the concentration needed to halve the response being measured.

Sequence of mitochondrial ceramidase (Q91XT9 whole entry): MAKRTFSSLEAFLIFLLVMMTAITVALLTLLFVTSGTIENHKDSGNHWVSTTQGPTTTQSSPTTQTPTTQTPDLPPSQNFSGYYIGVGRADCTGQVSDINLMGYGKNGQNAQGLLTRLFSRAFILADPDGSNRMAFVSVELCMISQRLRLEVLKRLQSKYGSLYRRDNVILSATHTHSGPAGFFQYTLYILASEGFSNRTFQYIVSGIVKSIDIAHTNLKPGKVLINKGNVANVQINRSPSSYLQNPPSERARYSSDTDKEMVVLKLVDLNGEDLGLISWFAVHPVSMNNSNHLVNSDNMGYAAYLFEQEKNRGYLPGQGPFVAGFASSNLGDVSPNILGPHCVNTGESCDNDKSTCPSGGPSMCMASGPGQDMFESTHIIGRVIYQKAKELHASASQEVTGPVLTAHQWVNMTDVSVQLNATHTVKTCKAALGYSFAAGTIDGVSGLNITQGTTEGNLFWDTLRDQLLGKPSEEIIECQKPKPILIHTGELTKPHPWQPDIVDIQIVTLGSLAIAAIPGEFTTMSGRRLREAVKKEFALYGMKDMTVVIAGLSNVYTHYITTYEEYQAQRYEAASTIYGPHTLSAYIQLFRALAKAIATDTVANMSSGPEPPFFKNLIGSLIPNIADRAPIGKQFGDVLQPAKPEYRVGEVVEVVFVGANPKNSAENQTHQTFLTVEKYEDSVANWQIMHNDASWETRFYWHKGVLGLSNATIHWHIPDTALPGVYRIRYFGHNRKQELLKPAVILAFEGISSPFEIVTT

One experiment has as its target mitochondrial ceramidase (Rattus norvegicus, UniProt Q91XT9). In words: mitochondrial ceramidase (mt-CDase) activity, radioactive assay or HPLC assay. It is filed as biochemical. The following applies: Table 2, sphingosine analogues; hydrolysis of D-erythro-ceramide at 0.625 mole % (50 μM). As for the experimental part: The enzymatic activity of mitochondrial ceramidase was determined by either one of the two following methods:
a. Radioactive assay: The mt-CDase activity was determined by measuring the release of radioactive fatty acid from tritiated ceramide ([^3H]-C16-Cer), labeled in the acyl chain. Briefly, organic solutions of ceramide and its analogues were initially mixed together, solvents were completely evaporated under nitrogen, then the dried lipids were dispersed in Triton-X 100 by sonication and vigorous vortexing. The reaction assay contained (in a final volume of 200 μl): enzyme (5-10 ng) and 10 nmoles of tritiated C16-ceramide (1×10^5 dpm) delivered in 100 μl of 1% Triton X-100 micelles in a glycine buffer pH 9.5 (200 mM).
b. HPLC-assay: The Mt-CDase activity was also determined by measuring the amount of sphingosine released. Basically the assay was initially the same as described above but using non-radioactive ceramide. The reaction was stopped with 800 μl of chloroform: methanol (2:1 v/v) mixture followed by the addition of phyto-sphingosine (0.5 nmoles) and dihydro-sphingosine (1 nmole) as internal standard and carrier, respectively. The reaction mix was then extracted with NaOH (50 μl, 1N), and the lower chloroform layer containing the sphingosine was further washed with water (100 μl) and dried. The released sphingosine was quantified as the ortho-phthaldehyde (OPA) derivatives as described (30). […] The solvent system was methyl alcohol: potassium phosphate buffer (5 mM), pH 7.0 (90:10 v/v) at a flow rate of 1 ml/min. […] Activity was determined relative to the phytosphingosine OPA peak.
The effects of various compounds of the invention which are stereochemical and structural analogues of ceramide and sphingosine on mt-CDase were investigated. […] Results were expressed as percent of the control ceramidase activity.
In the case of `CCCCCCCCCCCCC/C=C/[C@@H](O)[C@@H](N)COC` [Compound 1-O-Me-Sph, 1-O-methyl-D-erythro-sphingosine], the “Estimated IC50 (mole %)” value was “weak”.

Consider `CCCCCCCCCCCCC/C=C/[C@@H](OC)[C@@H](N)CO` [Compound 3-O-Me-Sph, 3-O-methyl-D-erythro-sphingosine], for which the “Estimated IC50 (mole %)” value is listed as “no effect”.

Take `CCCCCCCCCCCCC/C=C/C(=O)[C@@H](N)CO` [Compound 3-keto-Sph, 3-keto-sphingosine]: the “Estimated IC50 (mole %)” value is recorded as “weak”.

Turning to `CCCCCCCCCCCCC/C=C/[C@@H](O)[C@H](CO)NCCCCCCCCCCCCCCCCCC` [Compound C18-Ceramine, N-stearyl-D-erythro-sphingosine], the “Estimated IC50 (mole %)” value is reported as 0.5 mole %.

Turning to `CCCCCCCCCCCCC/C=C/[C@@H](O)[C@@H](N)CO` [D-e-Sph, D-erythro-sphingosine, reference compound], the “Estimated IC50 (mole %)” value is 0.04 mole %.

Take `CCCCCCCCCCCCCC#C[C@@H](O)[C@@H](N)CO` [D-e-deh-Sph, D-erythro-dehydrosphingosine]: the “Estimated IC50 (mole %)” value is 0.25 mole %.

For the compound `CCCCCCCCCCCCCCC[C@@H](O)[C@@H](N)CO` [D-e-dh-Sph, D-erythro-dihydrosphingosine], the “Estimated IC50 (mole %)” value was 0.34 mole %.

As for `CCCCCCCCCCCCC/C=C/[C@@H](O)[C@H](N)CO` [D-t-Sph, D-threo-sphingosine], the “Estimated IC50 (mole %)” value is recorded as 0.11 mole %.

`CCCCCCCCCCCCC/C=C/[C@H](O)[C@H](N)CO` [L-e-Sph, L-erythro-sphingosine]: the “Estimated IC50 (mole %)” value is reported as 0.09 mole %.

With `CCCCCCCCCCCCC/C=C/[C@H](O)[C@@H](N)CO` [L-t-Sph, L-threo-sphingosine], the “Estimated IC50 (mole %)” value is listed as 0.14 mole %.

On to `CCCCCCCCCCCCC/C=C/[C@@H](O)[C@H](CO)N(C)C` [N,N-diMe-Sph, N,N-dimethyl-D-erythro-sphingosine], for which the “Estimated IC50 (mole %)” value is given as “weak”.

As to `CCCCCCCCCCCCC/C=C/[C@@H](O)[C@@H](N)COP(=O)(O)O` [Sph-1-P, D-erythro-sphingosine 1-phosphate], the “Estimated IC50 (mole %)” value is “activator”.

Regarding `CCCCCCCCCCCCC/C=C\[C@@H](O)[C@@H](N)CO` [cis-D-e-Sph, cis-D-erythro-sphingosine], the “Estimated IC50 (mole %)” value was “weak”.

Still in this experiment, the particulars now being: at higher concentrations, greater than 2 mole %.
With `CCCCCCCCCCCCC/C=C\[C@@H](O)[C@@H](N)CO` [cis-D-e-Sph, cis-D-erythro-sphingosine], the “maximal inhibition of ceramide hydrolysis” value is listed as 32%.

The experiment is the same for the next values; noted with them: concentrations as stated at the place.
As for `CCCCCCCCCCCCC/C=C/[C@@H](O)[C@@H](N)COC` [Compound 1-O-Me-Sph, 1-O-methyl-D-erythro-sphingosine], the “effect on mt-CDase activity (in words)” value is “weaker”.

In the case of `CCCCCCCCCCCCC/C=C/C(=O)[C@@H](N)CO` [Compound 3-keto-Sph, 3-keto-sphingosine], the “effect on mt-CDase activity (in words)” value is reported as “weaker; also recorded: significant loss of inhibition”.

As for `CCCCCCCCCCCCC/C=C/[C@@H](O)[C@H](CO)N(C)C` [N,N-diMe-Sph, N,N-dimethyl-D-erythro-sphingosine], the “effect on mt-CDase activity (in words)” value was “weaker; also recorded: profound loss of activity”.

`CCCCCCCCCCCCC/C=C\[C@@H](O)[C@@H](N)CO` [cis-D-e-Sph, cis-D-erythro-sphingosine]: the “effect on mt-CDase activity (in words)” value is listed as “weaker; also recorded: no effect; also recorded: weak inhibitor”.

Still in this experiment, the particulars now being: inhibitor at 0.6 mole %.
Take `CCCCCCCCCCCCC/C=C/[C@@H](O)[C@@H](N)COC` [Compound 1-O-Me-Sph, 1-O-methyl-D-erythro-sphingosine]: the “inhibition of mt-CDase activity” value is around 25%.

In the case of `CCCCCCCCCCCCC/C=C/[C@@H](OC)[C@@H](N)CO` [Compound 3-O-Me-Sph, 3-O-methyl-D-erythro-sphingosine], the “inhibition of mt-CDase activity” value was “no effect”.

Consider `CCCCCCCCCCCCC/C=C/[C@@H](O)[C@@H](N)CO` [D-e-Sph, D-erythro-sphingosine, reference compound], for which the “inhibition of mt-CDase activity” value is listed as “totally inhibited”.

Still in this experiment, the particulars now being: inhibitor at 0.625 mole % (50 μM); read-out: inhibition (maximal inhibition) of mt-CDase activity.
Regarding `CCCCCCCCCCCCC/C=C/C(=O)[C@@H](N)CO` [Compound 3-keto-Sph, 3-keto-sphingosine], the inhibition at 50 µM is 35%.

For `CCCCCCCCCCCCC/C=C/[C@@H](O)[C@@H](N)CO` [D-e-Sph, D-erythro-sphingosine, reference compound], the inhibition at 50 µM came to 98%.

`CCCCCCCCCCCCCC#C[C@@H](O)[C@@H](N)CO` [D-e-deh-Sph, D-erythro-dehydrosphingosine]: the inhibition at 50 µM worked out at 75%.

For `CCCCCCCCCCCCC/C=C\[C@@H](O)[C@@H](N)CO` [cis-D-e-Sph, cis-D-erythro-sphingosine], the inhibition at 50 µM is 10%.

The experiment is the same for the next values; noted with them: inhibitor at 1.25 mole % (100 μM).
For `CCCCCCCCCCCCC/C=C/[C@@H](O)[C@H](CO)NCCCCCCCCCCCCCCCCCC` [Compound C18-Ceramine, N-stearyl-D-erythro-sphingosine], the inhibition at 100 µM worked out at 75%.

Staying with this experiment, now noted: inhibitor at 2.5 mole %.
For the compound `CCCCCCCCCCCCC/C=C/[C@@H](O)[C@H](CO)N(C)C` [N,N-diMe-Sph, N,N-dimethyl-D-erythro-sphingosine], the “maximal inhibition of mt-CDase” value turned out to be 30%.

The experiment is the same for the next values; noted with them: sphingosine stereoisomers at higher concentrations (FIG. 4b).
In the case of `CCCCCCCCCCCCC/C=C/[C@@H](O)[C@H](N)CO` [D-t-Sph, D-threo-sphingosine], the “extent of inhibition of ceramidase” value was determined as 75%.

For the compound `CCCCCCCCCCCCC/C=C/[C@H](O)[C@H](N)CO` [L-e-Sph, L-erythro-sphingosine], the “extent of inhibition of ceramidase” value worked out at 98%.

Take `CCCCCCCCCCCCC/C=C/[C@H](O)[C@@H](N)CO` [L-t-Sph, L-threo-sphingosine]: the “extent of inhibition of ceramidase” value is reported as 60%.

The experiment is the same for the next values; noted with them: substrate D-erythro-ceramide 50 μM.
In the case of `CCCCCCCCCCCCC/C=C/[C@@H](O)[C@@H](N)CO` [D-e-Sph, D-erythro-sphingosine, reference compound], the IC50 stood at 3.3 µM.

The experiment is the same for the next values; noted with them: substrate D-erythro-ceramide 0.625 mole %.
Regarding `CCCCCCCCCCCCC/C=C/[C@@H](O)[C@@H](N)CO` [D-e-Sph, D-erythro-sphingosine, reference compound], the “IC50 (50% inhibition of mt-CDase activity)” value is given as 0.04 mole %.

Turning to `CCCCCCCCCCCCCC#C[C@@H](O)[C@@H](N)CO` [D-e-deh-Sph, D-erythro-dehydrosphingosine], the “IC50 (50% inhibition of mt-CDase activity)” value came to 0.25 mole %.

`CCCCCCCCCCCCCCC[C@@H](O)[C@@H](N)CO` [D-e-dh-Sph, D-erythro-dihydrosphingosine]: the “IC50 (50% inhibition of mt-CDase activity)” value is 0.20 mole % and 0.34 mole %.

The same experiment, now with this note: tested at 0-5 mole % (0-400 μM); [3H]-C16-ceramide 0.625 mole %.
Consider `CCCCCCCCCCCCC/C=C/[C@@H](O)[C@@H](N)COP(=O)(O)O` [Sph-1-P, D-erythro-sphingosine 1-phosphate], for which the “increase in ceramide hydrolysis” value amounted to 180%.

The same experiment, now with this note: varying D-erythro-ceramide concentration.
Regarding `CCCCCCCCCCCCC/C=C/[C@@H](O)[C@H](CO)NCCCCCCCCCCCCCCCCCC` [Compound C18-Ceramine, N-stearyl-D-erythro-sphingosine], the “type of inhibition (double reciprocal analysis: Km increased, Vmax unchanged)” value is “competitive inhibitor”.
